The values that follow come from ChEMBL document CHEMBL1759936, “Oxindole derivatives as inhibitors of TAK1 kinase” (Bioorg Med Chem Lett, 2011).

≈ marks a conversion by molar mass, not a printed value.

Chain of TAK1/TAB1 (Q15750 whole entry, one chain of several): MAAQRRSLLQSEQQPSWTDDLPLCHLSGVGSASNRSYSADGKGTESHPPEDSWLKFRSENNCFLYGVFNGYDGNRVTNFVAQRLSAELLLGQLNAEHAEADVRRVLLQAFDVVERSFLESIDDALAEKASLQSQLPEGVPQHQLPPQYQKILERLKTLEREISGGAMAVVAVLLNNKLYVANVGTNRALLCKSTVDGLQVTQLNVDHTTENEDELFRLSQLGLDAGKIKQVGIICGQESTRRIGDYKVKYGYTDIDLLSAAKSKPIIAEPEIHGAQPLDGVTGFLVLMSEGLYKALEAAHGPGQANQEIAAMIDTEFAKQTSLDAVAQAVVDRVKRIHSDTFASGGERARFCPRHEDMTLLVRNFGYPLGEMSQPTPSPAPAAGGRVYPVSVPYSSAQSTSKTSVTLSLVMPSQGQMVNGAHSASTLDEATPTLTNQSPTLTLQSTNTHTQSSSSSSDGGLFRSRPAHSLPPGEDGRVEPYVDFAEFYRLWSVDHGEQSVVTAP

The first data set deals with TAK1/TAB1 (Homo sapiens) (UniProt Q15750+O43318). Put plainly: Competitive inhibition of recombinant TAK1-TAB1 assessed as [33P]gamma-ATP incorporation into substrate histone H1 peptide at 10 uM by filter plate assay. The class given is protein-complex assay.
As to `O=C1Nc2ccccc2/C1=N/N=C1\N=NCN1c1ccc(O)cc1`, the inhibition came to 0%.

`O=C1Nc2ccccc2/C1=C\c1c[nH]cn1`: the inhibition was 32%.

Turning to `O=C1Nc2ccccc2C1c1ccnc(Nc2ccc(O)cc2)n1` (configuration not stated), the inhibition worked out at 39%.

As to `O=C1Nc2ccccc2/C1=N/N=C1\SCC(=O)N1c1ccc(OCc2ccccc2)cc1`, the inhibition turned out to be 6%.

On to `O=C1Nc2ccccc2/C1=N/N=C1\SCC(=O)N1c1cccc(Oc2ccccc2)c1`, for which the inhibition was 0%.

In the case of `O=C1Nc2ccccc2C1c1ccnc(Nc2ccccc2O)n1` (configuration not stated), the inhibition was determined as 52%.

Consider `C/C(C(=O)c1ccccc1)=C1/C(=O)Nc2ccccc21`, for which the inhibition is 39%.

Take `Cc1c(Cl)ccc2c1NC(=O)/C2=N\N=C1/SCC(=O)N1c1ccc(O)cc1`: the inhibition was 0%.

Turning to `O=C1Nc2cccc(Cl)c2/C1=N/N=C1\SCC(=O)N1c1ccc(O)cc1`, the inhibition was 4%.

Regarding `Cc1ccc(N2C(=O)CS/C2=N\N=C2/C(=O)Nc3ccccc32)cc1`, the inhibition stood at 0%.

As for `O=C1Nc2ccccc2/C1=C/C(=O)c1ccc(O)cc1O`, the inhibition came out at 21%.

A further data set has as its target T1, Mitogen-activated protein kinase kinase kinase 7 (Homo sapiens) (UniProt O43318).
T1 sequence (whole entry): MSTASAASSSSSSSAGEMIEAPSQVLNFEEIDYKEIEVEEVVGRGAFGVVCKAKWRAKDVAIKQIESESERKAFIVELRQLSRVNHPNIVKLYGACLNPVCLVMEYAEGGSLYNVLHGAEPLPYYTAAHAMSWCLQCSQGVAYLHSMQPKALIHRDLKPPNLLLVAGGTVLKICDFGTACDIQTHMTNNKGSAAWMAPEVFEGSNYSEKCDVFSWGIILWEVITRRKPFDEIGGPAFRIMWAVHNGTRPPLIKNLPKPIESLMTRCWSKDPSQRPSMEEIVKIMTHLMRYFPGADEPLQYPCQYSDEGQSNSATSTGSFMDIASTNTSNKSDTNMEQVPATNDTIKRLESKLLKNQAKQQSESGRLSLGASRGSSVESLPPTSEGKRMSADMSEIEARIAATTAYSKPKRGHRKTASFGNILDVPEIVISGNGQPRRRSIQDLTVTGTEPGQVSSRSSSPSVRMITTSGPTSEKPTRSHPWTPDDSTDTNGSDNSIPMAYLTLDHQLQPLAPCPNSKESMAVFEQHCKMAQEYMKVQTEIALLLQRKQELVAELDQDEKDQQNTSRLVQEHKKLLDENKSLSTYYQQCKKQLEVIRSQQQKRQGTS
Put plainly: Competitive inhibition of TAK1 overexpressed in Hela cells assessed as TAK1 autophosphorylation on Thr187 by ELISA.
As for `O=C1Nc2ccccc2/C1=N/N=C1\SCC(=O)N1c1ccc(O)cc1`, the 50% inhibitory concentration (IC50) turned out to be 11 µM.

For a further data set, the system named is HeLa. Put plainly: Cytotoxicity against human HeLa cells. In kind it is cell-based.
As for `O=C1Nc2ccccc2/C1=N/N=C1\SCC(=O)N1c1ccc(O)cc1`, the IC50 is above 100 µM.

Tested on in another data set: not listed separately
Put plainly: Solubility in phosphate buffer at pH 7.4. The class given is physicochemical.
In turn, `O=C1Nc2ccc(Br)cc2/C1=N/N=C1\SCC(=O)N1c1ccc(O)cc1` returned a solubility of 3.1 µM (≈ 1.34 µg/mL).

`O=C1Nc2ccccc2/C1=N/N=C1\SCC(=O)N1c1ccc(O)cc1` yielded a solubility of 65 µM (≈ 22.9 µg/mL).

The next data set concerns the target TAK1/TAB1 (Homo sapiens, UniProt O43318). The experiment in a line: Competitive inhibition of recombinant TAK1-TAB1 assessed as [33P]gamma-ATP incorporation into substrate histone H1 peptide by filter plate assay. In kind it is protein-complex assay.
Regarding `CC1S/C(=N\N=C2/C(=O)Nc3ccc(Cl)cc32)N(c2ccc(O)cc2)C1=O` (configuration not stated), the concentration for half-maximal inhibition (IC50) is 0.63 µM.

For `O=C1Nc2ccccc2/C1=N/N=C1\SCC(=O)N1c1cnccc1O`, the IC50 is 25 µM.

Take `O=C1Nc2ccc(Br)cc2/C1=N/N=C1\SCC(=O)N1c1ccc(O)cc1`: the IC50 turned out to be 0.0089 µM.

`O=C1Nc2ccccc2/C1=C/C(=O)c1ccccc1`: the IC50 was above 5 µM.

As for `O=C1Nc2ccccc2/C1=C/C(=O)c1cccc(O)c1`, the half-inhibitory concentration (IC50) came out at 4.1 µM.

For `O=C1Nc2ccccc2/C1=N/N=C1\SCC(=O)N1c1cccc(O)c1`, the IC50 is 29 µM.

`O=C1Nc2ccccc2/C1=C\c1ccc(O)c(O)c1O`: the IC50 came to 1.7 µM.

For the compound `CCC1S/C(=N\N=C2/C(=O)Nc3ccc(Cl)cc32)N(c2ccc(O)cc2)C1=O` (configuration not stated), the IC50 was above 5 µM.

With `Cc1ccc2c(c1)/C(=N/N=C1\SCC(=O)N1c1ccc(O)cc1)C(=O)N2`, the IC50 came out at 0.098 µM.

Regarding `COc1ccc(N2C(=O)CS/C2=N\N=C2/C(=O)Nc3ccccc32)cc1`, the IC50 is above 5 µM.

Regarding `O=C1Nc2ccccc2/C1=C/C(=O)c1ccc(O)c(O)c1`, the half-maximal inhibitory concentration (IC50) is 0.56 µM.

For `CC(C)C1S/C(=N\N=C2/C(=O)Nc3ccc(Cl)cc32)N(c2ccc(O)cc2)C1=O` (configuration not stated), the IC50 is above 5 µM.

As to `O=C1CS/C(=N\N=C2/C(=O)Nc3ccccc32)N1`, the IC50 was above 5 µM.

For the compound `O=C1Nc2ccc(F)cc2/C1=N/N=C1\SCC(=O)N1c1ccc(O)cc1`, the IC50 was 0.099 µM.

In the case of `O=C1Nc2ccc(OC(F)(F)F)cc2/C1=N/N=C1\SCC(=O)N1c1ccc(O)cc1`, the IC50 was 3 µM.

On to `O=C1Nc2ccccc2/C1=N/N=C1\SCC(=O)N1Cc1ccncc1`, for which the IC50 came to 8.2 µM.

`CN(C)c1ccc(N2C(=O)CS/C2=N\N=C2/C(=O)Nc3ccccc32)cc1`: the IC50 is above 50 µM.

Take `O=C1Nc2ccc(Cl)cc2/C1=N/N=C1\SCC(=O)N1c1ccc(O)cc1`: the IC50 was 0.021 µM.

For `O=C1Nc2ccccc2/C1=N/N=C1\SCC(=O)N1c1ccccc1O`, the IC50 came to 5.8 µM.

Regarding `O=C1Nc2ccccc2/C1=C\c1ccc(O)c(O)c1`, the IC50 was above 5 µM.

Regarding `O=C1Nc2ccccc2/C1=N/N=C1\SCC(=O)N1c1ccc(O)cc1`, the IC50 worked out at 0.046 µM.

For the compound `O=C1Nc2ccccc2/C1=N/N=C1\SCC(=O)N1CC1CCCN1` (configuration not stated), the IC50 stood at 30 µM.

As a reminder, the inhibition is the percentage by which the read-out fell short of the control. By IC50 is commonly meant the concentration at which inhibition is half-maximal. In general, solubility refers to the dissolved amount per volume that the medium holds. A lower solubility goes with a poorly soluble substance.
